Reference: patent US4663320A, “(2-oxo-1,2,3,5-tetrahydroimidazo[2,1-b]quinoazolinyl)oxyalkylamides, compositions and the use thereof” (Syntex (U.S.A.) Inc., priority 1985, dated 1987)
Read-outs that look alike come from different tables or passages of the source.

How the values were obtained:
[1] = tested on: Human platelet cyclic AMP phosphodiesterase; experiment: Cyclic AMP phosphodiesterase assay (human platelet); assay type: biochemical; conditions: for IC50: human platelet phosphodiesterase, 1 μM cyclic AMP as substrate; for Relative Potency: relative to theophylline (assigned a value of 1) on human platelet phosphodiesterase
Protocol: (§1) The inhibition of cyclic AMP phosphodiesterase activity by the subject compounds was assayed by the method of Filburn and Karn, Analyt. Biochem., 52:505-516 (1973), using 1 μM cyclic AMP as the substrate. Human platelet cyclic AMP phosphodiesterase was obtained from human donors. Platelets were isolated and washed by centrifugation, the membranes ruptured by a sequential freeze-thaw procedure and hypotonic lysis and the soluble enzyme isolated by high speed centrifugation. The enzyme was stored in aliquots at -20° C.
(§2) This table contains the IC50 values for human platelet phosphodiesterase and IC25 values for rat heart phosphodiesterase.

[2] = tested on: rat heart phosphodiesterase; experiment: Cyclic AMP phosphodiesterase inhibition (rat heart); assay type: biochemical
Protocol: as §1, §2

[3] = tested on: Mongrel dogs; experiment: Inotropic activity in anesthetized dogs; assay type: in vivo; conditions: dog
Protocol: Mongrel dogs were anesthetized intravenously with 35 mg/Kg sodium pentobarbital and supplemented as needed. Blood pressure was measured with a Statham pressure transducer via a cannula inserted from a femoral artery into the abdominal aorta. Heart rate was recorded by a cardiotachometer from a lead II electrocardiogram. Right ventricular contractile force was recorded from a Walton-Brodie strain gauge sutured to the right ventricle following a midsternal thoracotomy. A Harvard respirator was used to ventilate the dogs with room air through an endotracheal tube. The dog was bilaterally vagotomized. Following a midline laparotomy, a cannula was sutured into the duodenum for intraduodenal administration of test compound. A femoral vein was cannulated for administration of isoproterenol. All data were recorded on a Beckman R611 Dynograph.
To assess the responsiveness of each dog, isoproterenol was given intravenously at half-log interval doses from 0.007 to 2.1 or 6.67 μg/Kg. The test compound was then administered intraduodenally, usually at a low dose of 2 mg/Kg and subsequently at higher doses of 6.32 and/or 20 mg/Kg, if necessary. In a few instances, some compounds administered intraduodenally at dose levels from 0.316 to 3.16 mg/Kg.

[4] = Acute and delayed toxicity in mice; assay type: in vivo; conditions: mouse, in vivo, mice, aqueous suspension (polysorbate 80)
Protocol: (§3) Three groups of three male mice (Sim:(ICR)fBR) in a weight range of 20 to 24 grams were used in this study. N-cyclohexyl-N-methyl-4-(2-oxo-1,2,3,5-tetrahydroimidazo[2,1-b]quinazolin- 7-yl)oxy-butyramide was administered intraperitoneally as an aqueous suspension (polysorbate 80).
(§4) When the test compound was administered orally, also as an aqueous suspension (polysorbate 80), the results are as follows: […]

[5] = tested on: male mice (Sim:(ICR)fBR); experiment: Acute and delayed toxicity in mice; assay type: in vivo; conditions: deaths/animals
Protocol: as §3, §4

[6] = tested on: Lewis Lung Carcinoma; experiment: Antimetastatic activity against Lewis Lung Carcinoma (Spontaneous Metastases); assay type: in vivo, mouse; conditions: oral 5 mg/kg every other day, day 20-21, p < 0.05
Protocol: Mice (female, C57B1/6, 16-18 gm) were inoculated subcutaneously between the inguinal and axillary areas with 0.2 ml of a freshly prepared tumor brei. Mice were treated orally with control vehicle (0.5% carboxymethylcellulose (CMC) or with test compound in suspension in 0.5% CMC. Treatments were initiated one day after tumor implantation, and continued every other day throughout the experiment. 20-21 days after initial implantation of the tumor, mice were sacrificed, weight of the primary tumor was determined, and the number of lung metastases was determined by counting under a disecting microscope. The results are shown in Table III.

[7] = tested on: B16-BL6 melanoma cells; experiment: Antimetastatic activity against B-16 Melanoma (B16-BL6); assay type: in vivo, mouse; conditions: oral 5 mg/kg every other day, day 20-21, control 10, p ≤ 0.02
Protocol: (§5) Mice (female, C57B1/6, 16-18 gm) were injected intravenously with either 7.5×10^4 viable B16-BL6 or B16-F10 melanoma cells, as indicated. The mice were orally treated with vehicle or drug, starting one day after tumor cell injection, and continuing every other day until the mice were sacrificed 20-21 days after tumor cell inoculation. The number of lung metastases was determined as described above, and the results are shown in Table IV (B16-BL6) or Table V (B16-F10).

[8] = tested on: B16-F10 melanoma cells; experiment: Antimetastatic activity against B-16 Melanoma (B16-F10); assay type: in vivo, mouse; conditions: oral 5 mg/kg every other day, day 20-21, control 23, p ≤ 0.01
Protocol: as §5

Compound: C[C@@H]1C(=O)NC2=Nc3ccc(OCCCC(=O)N(C)C4CCCCC4)cc3CN21 [N-cyclohexyl-N-methyl-4-(2-oxo-3-D-methyl-1,2,3,5-tetrahydroimidazo[2,1-b]quinazolin-7-yl)oxybutyramide]
- IC50 [1]: 5.4 nM
- Relative Potency [1]: 50,000
- Rat Heart IC25 [2]: 27 nM
- Blood Pressure, peak effect as % of max. isoproterenol ([3]; i.v., 0.1 mg/kg): 82%
- Heart Rate, peak effect as % of max. isoproterenol ([3]; i.v., 0.1 mg/kg): 73%
- Rt. Ventricular Contractile Force, peak effect as % of max. isoproterenol ([3]; i.v., 0.1 mg/kg): 43%
- Blood Pressure, peak effect as % of max. isoproterenol ([3]; intraduodenal, 0.316 mg/kg): 13%
- Heart Rate, peak effect as % of max. isoproterenol ([3]; intraduodenal, 0.316 mg/kg): 18%
- Rt. Ventricular Contractile Force, peak effect as % of max. isoproterenol ([3]; intraduodenal, 0.316 mg/kg): 18%
- Blood Pressure, peak effect as % of max. isoproterenol ([3]; intraduodenal, 1.0 mg/kg): 49%
- Heart Rate, peak effect as % of max. isoproterenol ([3]; intraduodenal, 1.0 mg/kg): 48%
- Rt. Ventricular Contractile Force, peak effect as % of max. isoproterenol ([3]; intraduodenal, 1.0 mg/kg): 50%
- Blood Pressure, peak effect as % of max. isoproterenol ([3]; intraduodenal, 3.16 mg/kg): 82%
- Heart Rate, peak effect as % of max. isoproterenol ([3]; intraduodenal, 3.16 mg/kg): 72%
- Rt. Ventricular Contractile Force, peak effect as % of max. isoproterenol ([3]; intraduodenal, 3.16 mg/kg): 53%

Compound: CN(C(=O)CCCOc1ccc2c(c1)CN1CC(=O)NC1=N2)C1CCCCC1 [N-cyclohexyl-N-methyl-4-(2-oxo-1,2,3,5-tetrahydroimidazo[2,1-b]quinazolin-7-yl)oxybutyramide]
- IC50 [1]: 12.5 nM
- Relative Potency [1]: 21,600
- Rat Heart IC25 [2]: 260 nM
- LD50 ([4]; ip, intraperitoneal, read-out: LD50 (intraperitoneal)): > 1500 mg/kg
- LD50 ([4]; oral, read-out: LD50 (oral)): > 1500 mg/kg
- Death ([5]; intraperitoneal, 500 mg/Kg): 0/3
- Death ([5]; intraperitoneal, 1,000 mg/Kg): 0/3
- Death ([5]; intraperitoneal, 1,500 mg/Kg): 0/3
- Death ([5]; oral, 500 mg/Kg): 0/3
- Death ([5]; oral, 1,000 mg/Kg): 0/3
- Death ([5]; oral, 1,500 mg/Kg): 0/3
- Blood Pressure, peak effect as % of max. isoproterenol ([3]; intraduodenal, 2 mg/kg): 25%
- Heart Rate, peak effect as % of max. isoproterenol ([3]; intraduodenal, 2 mg/kg): 30%
- Rt. Ventricular Contractile Force, peak effect as % of max. isoproterenol ([3]; intraduodenal, 2 mg/kg): 48%
- Blood Pressure, peak effect as % of max. isoproterenol ([3]; intraduodenal, 6.23 mg/kg): 96%
- Heart Rate, peak effect as % of max. isoproterenol ([3]; intraduodenal, 6.23 mg/kg): 40%
- Rt. Ventricular Contractile Force, peak effect as % of max. isoproterenol ([3]; intraduodenal, 6.23 mg/kg): 44%
- Pulmonary Metastases Median ([6]; control 28): 10.5
- Size of Primary Tumor ([6]; ± S.E., control 5.1 ± 0.4): 3.9 ± 0.4 gm
- Pulmonary Metastases Median [7]: 3
- Pulmonary Metastases Median [8]: 1.5
